Blank lines part the entries; values can stand above or below the compound they belong to.
Tests used:
[1] = target: T1, 3-hydroxy-3-methylglutaryl-coenzyme A reductase (Rattus norvegicus) (UniProt P51639); assay: In vivo hepatic cholesterol synthesis inhibitory activity in male Sprague-Dawley rat after oral administration at a concentration of 2.0 mg/kg; type: functional, organism-based; design: dose 2 mg/kg
T1 sequence (whole entry): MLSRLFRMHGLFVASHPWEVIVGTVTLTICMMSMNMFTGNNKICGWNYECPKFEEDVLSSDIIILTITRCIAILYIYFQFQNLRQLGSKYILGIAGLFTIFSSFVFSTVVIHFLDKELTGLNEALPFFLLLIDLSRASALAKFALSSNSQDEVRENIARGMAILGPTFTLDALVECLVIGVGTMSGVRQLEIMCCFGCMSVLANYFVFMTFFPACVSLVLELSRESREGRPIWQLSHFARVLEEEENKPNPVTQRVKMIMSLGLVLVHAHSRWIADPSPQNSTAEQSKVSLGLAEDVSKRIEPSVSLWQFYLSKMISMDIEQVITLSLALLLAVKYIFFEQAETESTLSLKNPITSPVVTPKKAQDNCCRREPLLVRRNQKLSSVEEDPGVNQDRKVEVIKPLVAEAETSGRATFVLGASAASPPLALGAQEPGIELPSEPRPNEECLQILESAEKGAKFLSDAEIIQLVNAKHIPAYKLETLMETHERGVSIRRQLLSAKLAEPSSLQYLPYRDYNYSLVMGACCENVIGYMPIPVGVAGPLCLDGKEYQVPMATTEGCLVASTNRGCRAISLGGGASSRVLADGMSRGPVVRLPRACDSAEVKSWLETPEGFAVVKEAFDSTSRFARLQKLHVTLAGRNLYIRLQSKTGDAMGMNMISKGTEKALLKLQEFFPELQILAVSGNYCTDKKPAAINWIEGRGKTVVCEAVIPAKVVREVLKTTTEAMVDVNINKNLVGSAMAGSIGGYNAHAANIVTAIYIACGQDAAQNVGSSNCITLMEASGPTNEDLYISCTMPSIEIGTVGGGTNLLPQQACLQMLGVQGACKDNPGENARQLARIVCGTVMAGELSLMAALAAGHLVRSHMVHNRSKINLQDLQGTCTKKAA

[2] = target: T1, 3-hydroxy-3-methylglutaryl-coenzyme A reductase (Rattus norvegicus); assay: In vivo hepatic cholesterol synthesis inhibitory activity in male Sprague-Dawley rat after oral administration at a concentration of 0.2 mg/kg; type: functional, organism-based; design: dose 0.2 mg/kg
[3] = target: T1, 3-hydroxy-3-methylglutaryl-coenzyme A reductase (Rattus norvegicus); assay: In vitro rat HMG-CoA reductase inhibitory activity required to inhibit sterol synthesis in cell free system with pravastatin as reference compound
[4] = target: T2, 3-hydroxy-3-methylglutaryl-coenzyme A reductase (Homo sapiens) (UniProt P04035); assay: In vitro HMG-CoA reductase inhibitory activity required to inhibit cellular steroidgenesis in Hep G2 cells (human hepatoma cell line) with pravastatin as reference compound; type: cell-based; settings: HepG2
T2 sequence (whole entry): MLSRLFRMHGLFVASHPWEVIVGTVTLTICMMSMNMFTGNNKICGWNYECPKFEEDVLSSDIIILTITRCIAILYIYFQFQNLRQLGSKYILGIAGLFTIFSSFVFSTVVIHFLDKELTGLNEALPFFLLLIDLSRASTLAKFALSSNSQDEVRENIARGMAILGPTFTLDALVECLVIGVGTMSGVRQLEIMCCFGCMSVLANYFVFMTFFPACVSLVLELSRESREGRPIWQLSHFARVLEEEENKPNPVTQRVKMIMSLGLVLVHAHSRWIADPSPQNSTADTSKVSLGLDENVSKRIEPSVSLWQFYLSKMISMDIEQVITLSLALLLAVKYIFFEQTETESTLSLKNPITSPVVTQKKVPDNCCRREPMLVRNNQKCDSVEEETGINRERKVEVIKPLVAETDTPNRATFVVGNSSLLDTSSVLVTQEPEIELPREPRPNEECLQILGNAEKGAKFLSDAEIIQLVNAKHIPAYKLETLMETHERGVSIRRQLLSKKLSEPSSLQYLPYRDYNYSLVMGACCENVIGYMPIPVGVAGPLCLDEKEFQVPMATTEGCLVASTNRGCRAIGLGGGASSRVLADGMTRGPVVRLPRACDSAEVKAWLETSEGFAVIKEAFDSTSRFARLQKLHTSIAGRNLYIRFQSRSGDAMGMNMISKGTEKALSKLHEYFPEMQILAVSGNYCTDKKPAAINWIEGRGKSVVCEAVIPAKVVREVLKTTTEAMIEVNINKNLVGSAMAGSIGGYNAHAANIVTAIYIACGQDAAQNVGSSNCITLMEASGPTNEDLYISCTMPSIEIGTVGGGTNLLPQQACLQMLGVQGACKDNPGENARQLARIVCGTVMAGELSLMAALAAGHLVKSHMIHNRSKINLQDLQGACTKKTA

inhibition [1]: 19.9%
inhibition [2]: 3.3%
Relative potency [3]: 264
Relative potency [4]: 1
Structure (SMILES): Cc1nn(-c2ccccc2)c2nc(C(C)C)c(/C=C/[C@@H](O)C[C@@H](O)CC(=O)O)c(-c3ccc(F)cc3)c12

Relative potency [3]: 48
Relative potency [4]: 19
Structure (SMILES): CC(C)c1nc2sc3c(c2c(-c2ccc(F)cc2)c1/C=C/[C@@H](O)C[C@@H](O)CC(=O)O)CCCC3

Relative potency [3]: 55
Relative potency [4]: 7
Structure (SMILES): CC(C)c1nc2c(c(C3CC3)nn2-c2ccccc2)c(-c2ccc(F)cc2)c1/C=C/[C@@H](O)C[C@@H](O)CC(=O)O

inhibition [2]: -6.1%
Relative potency [3]: 27
Relative potency [4]: 3
Structure (SMILES): Cc1cc2nc(C(C)C)c(/C=C/[C@@H](O)C[C@@H](O)CC(=O)O)c(-c3ccc(F)cc3)n2n1

Relative potency [3]: 228
Relative potency [4]: 10
Structure (SMILES): CC(C)c1nc2c(cnn2-c2ccccc2)c(-c2ccc(F)cc2)c1/C=C/[C@@H](O)C[C@@H](O)CC(=O)O

Relative potency [3]: 1
Relative potency [4]: < 1
Structure (SMILES): Cc1sc2nc(C(C)C)c(/C=C/[C@@H](O)C[C@@H](O)CC(=O)O)c(-c3ccc(F)cc3)c2c1-c1ccccc1

Relative potency [3]: 162
Relative potency [4]: 12
Structure (SMILES): Cc1c2c(-c3ccc(F)cc3)c(/C=C/[C@@H](O)C[C@@H](O)CC(=O)O)c(C(C)C)nc2nn1-c1ccccc1

inhibition [1]: 34.2%
Relative potency [3]: 68
Relative potency [4]: 22
Structure (SMILES): Cc1cc2c(-c3ccc(F)cc3)c(/C=C/[C@@H](O)C[C@@H](O)CC(=O)O)c(C(C)C)nc2s1

inhibition [1]: 11.5%
Relative potency [3]: 300
Relative potency [4]: 14
Structure (SMILES): Cn1nc(-c2ccccc2)c2c(-c3ccc(F)cc3)c(/C=C/[C@@H](O)C[C@@H](O)CC(=O)O)c(C3CC3)nc21

inhibition [1]: 48.1%
inhibition [2]: 41.1%
Relative potency [3]: 71
Relative potency [4]: 15
Structure (SMILES): Cc1nn(C)c2nc(C(C)C)c(/C=C/[C@@H](O)C[C@@H](O)CC(=O)O)c(-c3ccc(F)cc3)c12

inhibition [1]: 45.1%
inhibition [2]: 16.4%
Relative potency [3]: 63
Relative potency [4]: 17
Structure (SMILES): Cc1nn(Cc2ccccc2)c2nc(C(C)C)c(/C=C/[C@@H](O)C[C@@H](O)CC(=O)O)c(-c3ccc(F)cc3)c12

Relative potency [3]: 52
Relative potency [4]: 62
Structure (SMILES): CC(C)c1cc2c(-c3ccc(F)cc3)c(/C=C/[C@@H](O)C[C@@H](O)CC(=O)O)c(C(C)C)nc2s1

inhibition [1]: 71.1%
inhibition [2]: 37%
Relative potency [3]: 21
Relative potency [4]: 6
Structure (SMILES): CC(C)c1nc2c(c(-c3ccccc3)nn2C)c(-c2ccc(F)cc2)c1/C=C/[C@@H](O)C[C@@H](O)CC(=O)O

Relative potency [3]: 23
Relative potency [4]: 2
Structure (SMILES): O=C(O)C[C@H](O)C[C@H](O)/C=C/c1c(C2CC2)nc2sc3c(c2c1-c1ccc(F)cc1)CCCCC3

inhibition [1]: 6.5%
Relative potency [3]: 24
Relative potency [4]: 2
Structure (SMILES): Cc1cc2nc(C3CC3)c(/C=C/[C@@H](O)C[C@@H](O)CC(=O)O)c(-c3ccc(F)cc3)n2n1

inhibition [1]: 71.3%
inhibition [2]: 42.9%
Relative potency [3]: 42
Relative potency [4]: 1
Structure (SMILES): CC(C)c1nc2c(c(C3CC3)nn2C)c(-c2ccc(F)cc2)c1/C=C/[C@@H](O)C[C@@H](O)CC(=O)O

Relative potency [3]: 93
Relative potency [4]: 26
Structure (SMILES): CC(C)c1nc2c(c(-c3ccc(Cl)cc3)nn2C)c(-c2ccc(F)cc2)c1/C=C/[C@@H](O)C[C@@H](O)CC(=O)O

inhibition [1]: 86%
inhibition [2]: 51.8%
Relative potency [3]: 100
Relative potency [4]: 31
Structure (SMILES): Cc1nn(C(C)(C)C)c2nc(C(C)C)c(/C=C/[C@@H](O)C[C@@H](O)CC(=O)O)c(-c3ccc(F)cc3)c12

inhibition [1]: 72.2%
inhibition [2]: 4.5%
Relative potency [3]: 168
Relative potency [4]: 11
Structure (SMILES): Cc1nn(C(C)(C)C)c2nc(C3CC3)c(/C=C/[C@@H](O)C[C@@H](O)CC(=O)O)c(-c3ccc(F)cc3)c12

Relative potency [3]: 75
Relative potency [4]: < 1
Structure (SMILES): CC(C)(C)n1nc(-c2ccccc2)c2c(-c3ccc(F)cc3)c(/C=C/[C@@H](O)C[C@@H](O)CC(=O)O)c(C3CC3)nc21

inhibition [1]: 48.7%
Relative potency [3]: 154
Relative potency [4]: 149
Structure (SMILES): COc1ccc(-n2nc(C)c3c(-c4ccc(F)cc4)c(/C=C/[C@@H](O)C[C@@H](O)CC(=O)O)c(C(C)C)nc32)cc1

Relative potency [3]: 98
Relative potency [4]: 2
Structure (SMILES): CC(C)(C)n1nc(C2CC2)c2c(-c3ccc(F)cc3)c(/C=C/[C@@H](O)C[C@@H](O)CC(=O)O)c(C3CC3)nc21

Relative potency [3]: 25
Relative potency [4]: 3
Structure (SMILES): Cc1nn2c(-c3ccc(F)cc3)c(/C=C/[C@@H](O)C[C@@H](O)CC(=O)O)c(C3CC3)nc2c1C

More lines, now with the values behind:

Structure (SMILES): Cc1noc2nc(C(C)C)c(/C=C/[C@@H](O)C[C@@H](O)CC(=O)O)c(-c3ccc(F)cc3)c12
Relative potency [3]: 170
Relative potency [4]: 1

Structure (SMILES): CC(C)c1nc2cc(-c3ccccc3)nn2c(-c2ccc(F)cc2)c1/C=C/[C@@H](O)C[C@@H](O)CC(=O)O
inhibition [1]: 24.1%
inhibition [2]: -1.4%
Relative potency [3]: 12
Relative potency [4]: 3

Structure (SMILES): CC(C)c1nc2onc(-c3ccccc3)c2c(-c2ccc(F)cc2)c1/C=C/[C@@H](O)C[C@@H](O)CC(=O)O
inhibition [1]: 52.3%
inhibition [2]: 33.7%
Relative potency [3]: 83
Relative potency [4]: 1

Structure (SMILES): CC(C)c1nc2cc(C(C)(C)C)nn2c(-c2ccc(F)cc2)c1/C=C/[C@@H](O)C[C@@H](O)CC(=O)O
Relative potency [3]: 4
Relative potency [4]: < 1

Structure (SMILES): CC(C)c1nc2sc(-c3ccccc3)cc2c(-c2ccc(F)cc2)c1/C=C/[C@@H](O)C[C@@H](O)CC(=O)O
Relative potency [3]: < 1
Relative potency [4]: 1

Structure (SMILES): CCc1c(C)sc2nc(C3CC3)c(/C=C/[C@@H](O)C[C@@H](O)CC(=O)O)c(-c3ccc(F)cc3)c12
Relative potency [3]: 65
Relative potency [4]: 38

Structure (SMILES): CC(C)c1nc2sc3c(c2c(-c2ccc(F)cc2)c1/C=C/[C@@H](O)C[C@@H](O)CC(=O)O)CCC3
Relative potency [3]: 58
Relative potency [4]: 49

Structure (SMILES): O=C(O)C[C@H](O)C[C@H](O)/C=C/c1c(C2CC2)nc2sc3c(c2c1-c1ccc(F)cc1)CCC3
Relative potency [3]: 63
Relative potency [4]: 60

Structure (SMILES): CCc1c(C)sc2nc(C(C)C)c(/C=C/[C@@H](O)C[C@@H](O)CC(=O)O)c(-c3ccc(F)cc3)c12
inhibition [1]: 20.8%
inhibition [2]: 7.9%
Relative potency [3]: 35
Relative potency [4]: 51

Structure (SMILES): CCn1ncc2c(-c3ccc(F)cc3)c(/C=C/[C@@H](O)C[C@@H](O)CC(=O)O)c(C(C)C)nc21
Relative potency [3]: 71
Relative potency [4]: 39

Structure (SMILES): CC(C)c1cc2nc(C3CC3)c(/C=C/[C@@H](O)C[C@@H](O)CC(=O)O)c(-c3ccc(F)cc3)n2n1
inhibition [2]: 21.8%
Relative potency [3]: 6
Relative potency [4]: 1

Structure (SMILES): Cc1nn(-c2ccccn2)c2nc(C3CC3)c(/C=C/[C@@H](O)C[C@@H](O)CC(=O)O)c(-c3ccc(F)cc3)c12
Relative potency [3]: 229
Relative potency [4]: 4

Structure (SMILES): CC(C)c1nc2cc(-c3ccco3)nn2c(-c2ccc(F)cc2)c1/C=C/[C@@H](O)C[C@@H](O)CC(=O)O
Relative potency [3]: 13
Relative potency [4]: < 1

Structure (SMILES): CC(C)c1nc2c3c(nn2c(-c2ccc(F)cc2)c1/C=C/[C@@H](O)C[C@@H](O)CC(=O)O)CCCC3
Relative potency [3]: 30
Relative potency [4]: 1

Structure (SMILES): Cc1nn2c(-c3ccc(F)cc3)c(/C=C/[C@@H](O)C[C@@H](O)CC(=O)O)c(C3CC3)nc2c1-c1ccccc1
Relative potency [3]: 64
Relative potency [4]: 3

— ChEMBL document CHEMBL1134061, “Synthesis and biological evaluations of condensed pyridine and condensed pyrimidine-based HMG-CoA reductase inhibitors” (Bioorg Med Chem Lett, 2001)
